According to ChEMBL document CHEMBL4118045, “Vitepyrroloids A-D, 2-Cyanopyrrole-Containing Labdane Diterpenoid Alkaloids from the Leaves of Vitex trifolia” (J Nat Prod, 2017):
Active and inactive are the calls of the source. No cut-off for these calls is given here.

Key:
CNE-2 = test: Cytotoxicity against human CNE2 cells assessed as reduction in cell viability after 3 days by MTT assay; type: functional, cell-based
CNE = test: Cytotoxicity against human CNE1 cells assessed as reduction in cell viability after 3 days by MTT assay; type: functional, cell-based

| Structure (SMILES) | Activity (CNE-2) | Activity (CNE) | IC50 (CNE-2; CNE-2, 72 h) [µM] | IC50 (CNE; 72 h) [µM] |
| --- | --- | --- | --- | --- |
| CC(=O)O[C@H]1CC[C@@]2(C)[C@@H](CC[C@@H](C)[C@]2(O)CCc2ccn(CCCC(=O)O)c2C#N)C1(C)C | inactive | inactive |  |  |
| CCOC(=O)CCCn1ccc(CC[C@@]2(O)[C@H](C)CC[C@H]3C(C)(C)CCC[C@@]32C)c1C#N | inactive | inactive |  |  |
| CC(=O)O[C@@H]1C[C@@H](C)[C@](O)(CCc2ccn(CCO)c2C#N)[C@@]2(C)CCCC(C)(C)[C@H]12 | inactive | inactive |  |  |
| C[C@@H]1CC[C@H]2C(C)(C)CCC[C@]2(C)[C@@]1(O)CCc1cc[nH]c1C#N |  |  | > 10 | 8.7 |
